Experimental data: article PMC7949251 (Journal of medicinal chemistry, 2020)

Tests used:
JAK2 JH2 = JAK2 JH2 (Homo sapiens, UniProt O60674, F794H/W659A/W777A); test: Competitive fluorescence polarization
[1] = cited from earlier work

Sequence of JAK2 JH2 (O60674 536-812 W659A/W777A/F794H): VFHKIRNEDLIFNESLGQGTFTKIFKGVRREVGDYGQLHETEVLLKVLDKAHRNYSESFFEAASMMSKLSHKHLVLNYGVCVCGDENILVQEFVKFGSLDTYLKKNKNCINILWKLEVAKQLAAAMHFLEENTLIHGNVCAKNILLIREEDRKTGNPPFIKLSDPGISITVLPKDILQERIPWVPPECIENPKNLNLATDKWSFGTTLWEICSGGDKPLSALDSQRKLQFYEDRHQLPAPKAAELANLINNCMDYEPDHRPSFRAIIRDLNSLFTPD

Compound | octanol/water log P [1] | other results
Nc1nc(Nc2ccc(S(N)(=O)=O)cc2)nn1C(=O)Nc1ccccc1 [Compound 4, 5-amino-N-phenyl-3-((4-sulfamoylphenyl)amino)-1H-1,2,4-triazole-1-carboxamide] | – | improvement in JAK2 JH2 binding over 2 (JAK2 JH2; FP Kd relative to compound 2): 3 fold
N#Cc1ccc(Nc2nc(N)n(C(=O)Nc3ccc(OCC(=O)O)cc3)n2)cc1 [Compound 9, 2-(4-(5-amino-3-((4-cyanophenyl)amino)-1H-1,2,4-triazole-1-carboxamido)phenoxy)acetic acid] | – | boost in binding strength with JAK2 JH2 compared to 4 (JAK2 JH2; FP Kd relative to compound 4): ca. 8 fold
c1cocn1 [oxazole] | 0.12 | –
c1cscn1 [thiazole] | 0.44 | –
c1ccsc1 [thiophene] | 1.81 | –
furan | 1.34 | –
